Patent US7906522B2, “2-aminoquinazoline derivatives” (Kyowa Hakko Kirin Co., Ltd, priority 2005, dated 2011)

target: T1, Activated human p38α (Homo sapiens, UniProt Q16539); assay: p38MAP kinase inhibition test; type: biochemical; details: at a concentration of 1 μmol/L; substrate myelin basic protein, ATP 20 μmol/L, [γ-32P]ATP; read-out: enzyme inhibitory activity
T1 construct: purchased Upstate Biotechnology Inc. 14-251
How it was run: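 Phosphorylation of myelin basic protein (20 μg/assay) by the kinase measured via [γ-32P]ATP incorporation at 20 μmol/L ATP, pH 7.2 MOPS buffer, 30° C. for 15 min. Labelled substrate bound to P81 paper, washed, and quantified by scintillation counting; compounds added in DMSO.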

T1 sequence (Q16539 whole entry): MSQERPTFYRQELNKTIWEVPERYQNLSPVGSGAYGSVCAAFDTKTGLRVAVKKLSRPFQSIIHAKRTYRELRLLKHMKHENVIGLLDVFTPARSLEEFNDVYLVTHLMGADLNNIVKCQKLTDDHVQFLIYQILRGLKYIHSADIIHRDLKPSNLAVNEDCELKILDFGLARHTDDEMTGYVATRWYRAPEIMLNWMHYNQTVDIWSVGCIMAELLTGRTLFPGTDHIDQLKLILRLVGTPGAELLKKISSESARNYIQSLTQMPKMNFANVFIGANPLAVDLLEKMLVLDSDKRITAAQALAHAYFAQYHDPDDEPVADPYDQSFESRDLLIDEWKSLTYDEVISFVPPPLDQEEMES

Inhibition at 1 µM, ≥ 50%:
Cc1cc2nc(NC(C)C)ncc2cc1-c1cccc(NC(=O)c2ccc[nH]2)c1 [Compound 278, 2-Isopropylamino-7-methyl-6-{3-[(1H-pyrrol-2-yl)carbonylamino]phenyl}quinazoline]
COc1c(-c2ccccc2Cl)cc2cnc(NC(C)C)nc2c1Br [Compound 60, 8-Bromo-6-(2-chlorophenyl)-2-isopropylamino-7-methoxyquinazoline]
COc1cc2nc(NC(C)C)ncc2cc1-c1cc(NC(=O)c2ccc[nH]2)ccc1CO [Compound 228, 6-{2-Hydroxymethyl-5-[(1H-pyrrol-2-yl)carbonylamino]phenyl}-2-isopropylamino-7-methoxyquinazoline]
COc1cc2nc(NC(C)C)ncc2cc1-c1cc(NC(C)=O)ccc1CO [Compound 225, 6-[5-Acetylamino-2-(hydroxymethyl)phenyl]-2-isopropylamino-7-methoxyquinazoline]
CCS(=O)(=O)N[C@H]1CC[C@H](Nc2ncc3cc(-c4ccccc4Cl)c(OC)cc3n2)CC1 [Compound 147, 6-(2-Chlorophenyl)-2-[trans-4-(ethylsulfonylamino)cyclohexylamino]-7-methoxyquinazoline]
CC(C)Nc1ncc2cc(C(=O)c3cc(F)cc(F)c3)c(O)cc2n1 [Compound 134, 6-(3,5-Difluorobenzoyl)-7-hydroxy-2-(isopropylamino)quinazoline]
COc1c(-c2ccccc2Cl)cc2cnc(NC(C)C)nc2c1C(C)=O [Compound 77, 8-Acetyl-6-(2-chlorophenyl)-2-isopropylamino-7-methoxyquinazoline]
COc1cc2nc(Nc3c(Cl)cccc3Cl)ncc2cc1-c1ccccc1Cl [Compound 17, 6-(2-Chlorophenyl)-2-(2,6-dichloroanilino)-7-methoxyquinazoline]
CC(C)Nc1ncc2cc(-c3cccc(NC(=O)C4(C)CC4)c3)c(O)cc2n1 [Compound 299, 7-Hydroxy-2-isopropylamino-6-{3-[(1-methylcyclopropyl)carbonylamino]phenyl}quinazoline]
COc1cc2nc(NC(C)C)ncc2cc1-c1ccccc1C [Compound 191, 2-Isopropylamino-7-methoxy-6-(2-methylphenyl)quinazoline]
COc1cc2nc(NC(C)C)ncc2cc1C(=O)c1cccc(Cl)c1 [Compound 117, 6-(3-Chlorobenzoyl)-2-isopropylamino-7-methoxyquinazoline]
COc1ccccc1C(=O)c1cc2cnc(NC(C)C)nc2cc1O [Compound 122, 7-Hydroxy-2-isopropylamino-6-(2-methoxybenzoyl)quinazoline]
CC(C)Nc1ncc2cc(-c3ccccc3Cl)c(OCC(C)(C)O)cc2n1 [Compound 34, 6-(2-Chlorophenyl)-7-(2-hydroxy-2-methylpropyloxy)-2-isopropylaminoquinazoline]
CC(C)Nc1ncc2cc(C(=O)c3ccc(F)c(Cl)c3)c(O)cc2n1 [Compound 127, 6-(3-Chloro-4-fluorobenzoyl)-7-hydroxy-2-(isopropylamino)quinazoline]
COc1cc2nc(N[C@@H](C)c3ccccc3)ncc2cc1-c1ccccc1Cl [Compound 9, (S)-6-(2-Chlorophenyl)-7-methoxy-2-[(1-phenylethyl)amino]quinazoline]
COc1cc2nc(NC(C)C)ncc2cc1-c1cccc(NC(=O)c2ccncc2)c1 [Compound 215, 2-Isopropylamino-7-methoxy-6-{3-[(4-pyridyl)carbonylamino]phenyl}quinazoline]
CC[C@H](C)Nc1ncc2cc(-c3cc(NC(C)=O)ccc3CO)ccc2n1 [Compound 272, (S)-6-[5-acetylamino-2-(hydroxymethyl)phenyl]-2-(sec-butylamino)quinazoline]
CCOC(=O)c1oc2c(-c3ccccc3Cl)cc3cnc(NC(C)C)nc3c2c1C [Compound 111, 6-(2-Chlorophenyl)-8-ethoxycarbonyl-2-isopropylamino-9-methylfuro[2,3-h]quinazoline]
COc1cc2nc(NC(C)C)ncc2cc1-c1cccc(NC(=O)c2ccc(OC(F)(F)F)cc2)c1 [Compound 214, 2-Isopropylamino-7-methoxy-6-{3-[(4-trifluoromethoxyphenyl)carbonylamino]phenyl}quinazoline]
CCCS(=O)(=O)N1CCC(Nc2ncc3cc(-c4ccccc4Cl)c(OC)cc3n2)CC1 [Compound 148, 6-(2-Chlorophenyl)-7-methoxy-2-[1-(1-propylsulfonyl)piperidin-4-ylamino]quinazoline]
CC(=O)c1c(OCC(=O)O)c(-c2ccccc2Cl)cc2cnc(NC(C)C)nc12 [Compound 80, 8-Acetyl-7-(carboxymethyloxy)-6-(2-chlorophenyl)-2-(isopropylamino)quinazoline]
CC(C)Nc1ncc2cc(C(=O)c3ccccc3)c(O)cc2n1 [Compound 110, 6-Benzoyl-7-hydroxy-2-(isopropylamino)quinazoline]
Cc1ccccc1C(=O)c1cc2cnc(NC(C)C)nc2cc1O [Compound 119, 7-Hydroxy-2-isopropylamino-6-(2-methylbenzoyl)quinazoline]
CC(C)Nc1ncc2cc(-c3ccccc3Cl)c(OC(=O)c3ccccc3)cc2n1 [Compound 20, 7-Benzoyloxy-6-(2-chlorophenyl)-2-isopropylaminoquinazoline]
COc1cc2nc(NC3CCOCC3)ncc2cc1-c1cccc(NC(C)=O)c1 [Compound 243, 6-(3-Acetylaminophenyl)-7-methoxy-2-(4-tetrahydropyranylamino)quinazoline]
CCS(=O)(=O)N1CCC(Nc2ncc3cc(-c4ccccc4Cl)c(OC)cc3n2)CC1 [Compound 142, 6-(2-Chlorophenyl)-2-[1-(ethylsulfonyl)piperidin-4-ylamino]-7-methoxyquinazoline]
CC(=O)Nc1ccc(CO)c(-c2cc3cnc(NC(C)C)nc3cc2C)c1 [Compound 280, 6-[(5-Acetylamino-2-hydroxymethyl)phenyl]-2-isopropylamino-7-methylquinazoline]
COc1cc2nc(NC(C)C)ncc2cc1-c1cccc(F)c1 [Compound 204, 6-(3-Fluorophenyl)-2-isopropylamino-7-methoxyquinazoline]
COc1cc2nc(NC3CCN(S(C)(=O)=O)CC3)ncc2cc1-c1ccccc1NC(C)=O [Compound 239, 6-(2-Acetylaminophenyl)-7-methoxy-2-[1-(methylsulfonyl)piperidin-4-ylamino]quinazoline]
CNC(=O)Nc1cccc(-c2cc3cnc(NC(C)C)nc3cc2OC)c1 [Compound 212, 2-Isopropylamino-7-methoxy-6-[3-(3-methylureido)phenyl]quinazoline]
COc1cc2nc(NC(C)C)ncc2cc1-c1cc(NC(=O)c2ccc[nH]2)ccc1O [Compound 252, 6-{2-Hydroxy-5-[(1H-pyrrol-2-yl)carbonylamino]phenyl}-2-isopropylamino-7-methoxyquinazoline]
COc1cc2nc(NC(C)C)ncc2cc1-c1ccc(O)cc1 [Compound 47, 6-(4-Hydroxyphenyl)-2-isopropylamino-7-methoxyquinazoline]
COc1cc2nc(NC3CCNCC3)ncc2cc1-c1ccccc1Cl [Compound 152, 6-(2-Chlorophenyl)-7-methoxy-2-(piperidin-4-ylamino)quinazoline]
COc1cc2nc(NC(C)C)ncc2cc1-c1ccccc1 [Compound 44, 2-Isopropylamino-7-methoxy-6-phenylquinazoline]
COc1cc2nc(NC3CCN(S(C)(=O)=O)CC3)ncc2cc1-c1ccccc1C [Compound 164, 7-Methoxy-6-(2-methylphenyl)-2-[1-(methylsulfonyl)piperidin-4-ylamino]quinazoline]
COc1ccccc1-c1cc2cnc(NC(C)C)nc2cc1OC [Compound 193, 2-Isopropylamino-7-methoxy-6-(2-methoxyphenyl)quinazoline]
COc1cc2nc(NC(C)C)ncc2cc1C(=O)c1ccccc1C [Compound 113, 2-Isopropylamino-7-methoxy-6-(2-methylbenzoyl)quinazoline]
CC(C)Nc1ncc2cc(-c3cccc(O)c3)c(O)cc2n1 [Compound 244, 7-Hydroxy-6-(3-hydroxyphenyl)-2-(isopropylamino)quinazoline]
CC(C)Nc1ncc2cc(-c3ccc(F)cc3F)c(O)c(-c3ccc(F)cc3)c2n1 [Compound 84, 6-(2,4-Difluorophenyl)-8-(4-fluorophenyl)-2-isopropylamino-7-hydroxyquinazoline]
COc1cc2nc(N[C@H](C)C(C)(C)O)ncc2cc1-c1ccccc1Cl [Compound 7, (R)-6-(2-Chlorophenyl)-2-(2-hydroxy-1,2-dimethylpropylamino)-7-methoxyquinazoline]
COc1cc2nc(NC3CCCC3)ncc2cc1-c1ccccc1Cl [Compound 6, 6-(2-Chlorophenyl)-2-(cyclopentylamino)-7-methoxyquinazoline]
CC(C)Nc1ncc2cc(-c3ccccc3Cl)c(O)c(-c3c(F)cccc3F)c2n1 [Compound 102, 6-(2-Chlorophenyl)-8-(2,6-difluorophenyl)-7-hydroxy-2-(isopropylamino)quinazoline]
COc1cc2nc(NC(C)C)ncc2cc1C(=O)c1ccccc1 [Compound 109, 6-Benzoyl-2-isopropylamino-7-methoxyquinazoline]
